Source: patent US20140024613A1, “Methods for Treating HCV” (AbbVie Inc., priority 2012, published 2014)

Assays:
[1] = known effect of ritonavir, FDA approved Kaletra Drug Label May 2012; cited from earlier work
[2] = set-up: species or system HCV patients (human); settings: in vivo
Excerpt: Ritonavir-boosted HIV protease inhibitors are associated with increases in serum lipids. See FIG. 1, where LPV refers to lopinavir, “/r” refers to co-administration with ritonavir (e.g., LPV/r refers to lopinavir co-administered with ritonavir). DRV refers to darunavir, ATV refers to atazanavir, FPV refers to fosamprenavir, FTC refers to emtricitabine, TDF refers to tenofovir disoproxil fumarate, […], 3TC refers to lamivudine, TC refers to total cholesterol, and TG refers to total triglycerides. These increase in cholesterol and triglycerides may be related to inhibition of the proteasome, which is involved in degradation of proteins related to lipid metabolism. However, the impact of ritonavir-boosted HCV treatments on lipid levels has not been studied. The purpose of this Example was to examine the lipid levels of HCV patients during 12 weeks of treatment with ritonavir-containing, interferon-free regimens. […]
Fasting total cholesterol (TC) and triglycerides (TG) were measured at each study visit. The number of subjects with baseline low or normal TC or TG who shifted to high TC or TG were calculated using NCEP cut-offs. Lipid fractions were not measured.

Question: Which “cholesterol and triglyceride levels” value [1] does the source give for `CC(C)c1nc(CN(C)C(=O)N[C@H](C(=O)N[C@@H](Cc2ccccc2)C[C@H](O)[C@H](Cc2ccccc2)NC(=O)OCc2cncs2)C(C)C)cs1` [ritonavir] here?
Answer: The value was “elevated cholesterol and triglyceride levels”.

Question: What about the “total cholesterol and triglyceride levels” value [2] of the same molecule?
Answer: The value was “not elevated”.
